Patent US9593062B2, “Means and methods for treating and/or preventing natural AHR ligand-dependent cancer” (priority 2011, dated 2017)
Read-outs that look alike come from different tables or passages of the source.

Assays:
AHR [1] = molecular target: T1, AHR (Homo sapiens, UniProt P35869); assay: ethoxyresorufin-O-deethylase (EROD) assay, induction of AHR target gene CYP1A1; format: cell-based
T1 sequence (P35869 11-848): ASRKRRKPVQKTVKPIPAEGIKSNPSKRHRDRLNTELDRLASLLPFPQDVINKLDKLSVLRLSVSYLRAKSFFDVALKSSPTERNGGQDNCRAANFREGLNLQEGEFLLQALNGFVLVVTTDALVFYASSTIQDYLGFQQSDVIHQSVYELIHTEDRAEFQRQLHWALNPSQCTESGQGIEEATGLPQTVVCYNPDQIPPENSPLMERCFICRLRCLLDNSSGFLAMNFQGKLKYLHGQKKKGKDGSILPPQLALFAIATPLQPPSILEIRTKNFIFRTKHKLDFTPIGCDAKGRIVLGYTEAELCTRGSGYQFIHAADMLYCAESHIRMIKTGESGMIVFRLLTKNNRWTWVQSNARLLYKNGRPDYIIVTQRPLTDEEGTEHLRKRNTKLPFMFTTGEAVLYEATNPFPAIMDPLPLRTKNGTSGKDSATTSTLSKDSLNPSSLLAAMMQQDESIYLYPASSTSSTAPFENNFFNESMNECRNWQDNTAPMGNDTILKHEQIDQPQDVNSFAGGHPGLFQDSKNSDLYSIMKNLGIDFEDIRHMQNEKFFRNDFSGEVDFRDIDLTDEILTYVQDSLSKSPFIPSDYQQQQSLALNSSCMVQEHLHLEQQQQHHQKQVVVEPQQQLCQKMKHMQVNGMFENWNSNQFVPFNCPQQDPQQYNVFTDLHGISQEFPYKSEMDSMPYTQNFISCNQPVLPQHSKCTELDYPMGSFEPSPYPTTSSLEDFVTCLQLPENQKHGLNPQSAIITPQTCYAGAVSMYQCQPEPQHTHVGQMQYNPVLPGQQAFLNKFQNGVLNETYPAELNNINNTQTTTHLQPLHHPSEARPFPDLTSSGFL
Description: Such an inhibition may occur if the compound binds to an interaction domain of the AHR or its ligand binding domain and thereby inhibits the biological function of the AHR as specified elsewhere herein. Preferably, the inhibitor blocks the ligand binding domain for kynurenin, i.e. interacts with the ligand binding domain of the PAS-B domain or the ligand binding domain formed by Tyr310, Phe324, His326 and Arg352 (amino acid positions corresponding to human AHR). Alternatively, the compound may elicit an allosteric effect on the AHR polypeptide resulting in an inhibition of the biological function as well. An indirect inhibition can be elicited by a compound which reduces or prevents the transcription and/or translation of AHR polypetides and, thus, the amount of available AHR polypeptides in a cell. The AHR inhibitor shall at least reduce the AHR activity to a statistically significant extent. Of course, preferably, the inhibitor will reduce the AHR activity below the detectable limits. […] The activity of AHR can be detected by determining induction of the gene expression of its endogenous target gene CYP1A1 by an ethoxyresorufin-O-deethylase (EROD) assay.

AHR [2] = molecular target: T2, AHR (Mus musculus, UniProt P30561)
T2 sequence (P30561 1-848): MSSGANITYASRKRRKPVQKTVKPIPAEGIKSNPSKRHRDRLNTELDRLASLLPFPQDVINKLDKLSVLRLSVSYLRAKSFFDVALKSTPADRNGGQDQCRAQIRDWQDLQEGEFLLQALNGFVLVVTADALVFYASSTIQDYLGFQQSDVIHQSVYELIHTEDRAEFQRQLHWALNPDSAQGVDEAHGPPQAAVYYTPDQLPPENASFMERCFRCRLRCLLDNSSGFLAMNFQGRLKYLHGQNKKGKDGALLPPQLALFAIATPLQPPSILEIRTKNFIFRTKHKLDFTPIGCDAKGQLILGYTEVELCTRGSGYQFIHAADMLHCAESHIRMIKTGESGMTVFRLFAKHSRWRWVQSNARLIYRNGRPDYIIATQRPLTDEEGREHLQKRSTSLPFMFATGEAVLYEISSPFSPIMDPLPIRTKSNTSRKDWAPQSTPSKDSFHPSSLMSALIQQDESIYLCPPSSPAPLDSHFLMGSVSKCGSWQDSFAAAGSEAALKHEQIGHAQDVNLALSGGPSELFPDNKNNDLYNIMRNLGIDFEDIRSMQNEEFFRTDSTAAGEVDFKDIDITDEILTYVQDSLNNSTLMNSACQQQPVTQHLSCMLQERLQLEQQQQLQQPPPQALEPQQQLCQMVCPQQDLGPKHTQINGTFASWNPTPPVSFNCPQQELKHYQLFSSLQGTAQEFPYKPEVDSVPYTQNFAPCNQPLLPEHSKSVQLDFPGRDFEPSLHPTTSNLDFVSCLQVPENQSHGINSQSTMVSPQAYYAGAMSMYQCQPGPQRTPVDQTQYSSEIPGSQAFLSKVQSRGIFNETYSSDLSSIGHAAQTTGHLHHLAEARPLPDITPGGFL
Description: The data distribution is represented by box plots, showing the 25th and 75th percentile together with the median, whiskers represent the 10th and 90th percentile, respectively (P<0.001, one way ANOVA on ranks, followed by Dunns' method). d, AHR Western blots of two different nuclear and cytoplasmic fractions each of control (1,2), Kyn-treated (3,4) and TCDD-treated (5,6) human LN-229 glioma cells. e, Dioxinresponsive element (DRE) chemical activated luciferase gene expression in U87 glioma cells treated with indicated Kyn concentrations (n=2). f, Radioligand binding assay with indicated concentrations of L-3H-Kyn using mouse liver cytosol from Ahr-proficient and Ahr-deficient mice.
L-3H-Kyn with a specific activity of 11 Ci/mmol was obtained from Quotient Bioresearch (Radiochemicals) Ltd. (Cardiff, UK). The binding assays with L-3H-Kyn using mouse liver cytosol from Ahr-proficient and Ahr-deficient mice were performed. Specific binding was defined as the difference of radioactivity between Ahr-proficient and Ahr-deficient cytosol.

AHR [3] = molecular target: T3, AHR (Mus musculus, UniProt P30561); assay: AHR nuclear translocation (GFP-tagged AHR, mouse hepatoma cells); format: cell-based; conditions: after 1 h; 50 μM Kyn
T3 construct: expressed in transfected cells; host or cells: Tao BpRc1c mouse hepatoma cells
T3 sequence (P30561 10-848): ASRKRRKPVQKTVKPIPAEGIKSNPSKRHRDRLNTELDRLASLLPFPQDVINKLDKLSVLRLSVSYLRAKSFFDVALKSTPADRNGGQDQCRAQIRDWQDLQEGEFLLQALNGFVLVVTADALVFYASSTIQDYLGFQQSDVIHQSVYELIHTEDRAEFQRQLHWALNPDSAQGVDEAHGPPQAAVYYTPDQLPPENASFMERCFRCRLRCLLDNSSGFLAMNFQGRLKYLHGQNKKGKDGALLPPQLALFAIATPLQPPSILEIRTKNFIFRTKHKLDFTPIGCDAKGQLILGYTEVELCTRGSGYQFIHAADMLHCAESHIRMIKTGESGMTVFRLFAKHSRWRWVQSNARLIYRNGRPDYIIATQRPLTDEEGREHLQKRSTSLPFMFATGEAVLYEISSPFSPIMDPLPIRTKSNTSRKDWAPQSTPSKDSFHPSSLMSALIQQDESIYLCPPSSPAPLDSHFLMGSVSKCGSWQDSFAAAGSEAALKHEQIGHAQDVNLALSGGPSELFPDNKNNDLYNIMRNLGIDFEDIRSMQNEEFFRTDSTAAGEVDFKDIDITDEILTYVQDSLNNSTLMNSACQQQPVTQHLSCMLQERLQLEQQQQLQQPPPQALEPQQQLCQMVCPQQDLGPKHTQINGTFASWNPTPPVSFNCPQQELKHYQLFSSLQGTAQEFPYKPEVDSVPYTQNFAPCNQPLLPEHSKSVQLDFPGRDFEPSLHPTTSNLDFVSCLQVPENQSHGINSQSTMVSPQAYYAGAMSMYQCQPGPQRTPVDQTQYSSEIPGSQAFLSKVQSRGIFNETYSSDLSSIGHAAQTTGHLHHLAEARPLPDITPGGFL
Description: For detection of AHR translocation 7000 Tao BpRc1c cells with a GFP-tagged AHR per well were exposed to 50 μM Kyn or 50 μM Trp, fixed in 3.7% formaldehyde in PBS, permeabilised in 0.1% Triton X100, incubated with 1 μg/ml Hoechst 33342 (Invitrogen) and imaged on a BD Pathway™ Imager 855 in a non-confocal mode using a 20× U-Apo 340 objective (Olympus, NA 0.75). Further analysis of fluorescence intensity was performed using the Attovision software (BD Biosciences). In addition, the AHR protein content in the nuclear and the cytoplasmic fractions of LN-229 glioma cells was compared by immunoblotting.

glioma cells = assay: Motility, clonogenic survival and sphere formation of glioma cells; format: cell-based, human
Description: Tumor weight was calculated using the equation: tumor weight (g)=(length (cm)×width (cm)2)×0.5. e, IFN-γ-release of T cells of mice bearing subcutaneous Tdo-expressing tumors (black bar) in comparison to T cells of mice bearing Tdo-deficient tumors (white bar) after restimulation with glioma lysates measured by ELISpot (n=3). f, Lysis of GL261 murine glioma cells by spleen cells of mice with Tdo-expressing GL261 tumors in comparison to those with a subcutaneous Tdo-deficient GL261 tumors measured by chromium release (n=4). g, Quantification of the migrated distances of sh-c (open squares) and sh-TDO (solid circles) cells into a collagen matrix (n=3, P=0.004, 0.0005 and 0.01 for 24, 48 and 72 h, respectively). h, Clonogenic survival of sh-c (white bar) and sh-TDO (black bar) U87 cells (n=3). i, Matrigel boyden chamber assay of U87 glioma cells in the absence or presence of 70 μM Trp without or with 30 μM or 60 μM Kyn (n=3). j, Clonogenic survival of LN-18 glioma cells in the absence or presence of 70 μM Trp without or with 30 μM or 60 μM Kyn (n=3). k, Representative cranial MRIs, H&E and nestin stainings of CD1 nu/nu mice implanted with sh-c (upper panel) or sh-TDO (lower panel) U87 glioma cells. […]

AHR response genes = assay: Microarray analysis of Kyn-treated U87 glioma cells; format: cell-based, human; conditions: U87, 100 μM Kyn, 8 h and 24 h
Description: U87 glioma cells were treated with 100 μM Kyn for 8 h or 24 h, after which the cells were harvested and RNA isolated using the RNAeasy-Kit (Qiagen). The RNA was subjected to microarray analyses as detailed in the Supplementary Methods. For each of the four treatments (8 h, 24 h, Kyn-treated, untreated) two arrays were hybridised and the mean log 2 ratios of gene expression in Kyn-treated vs. untreated samples were calculated. Further analyses of the data are detailed in the Supplementary Methods. For clinical samples microarray and clinical data were acquired from the REpository for Molecular BRAin Neoplasia DaTa (REMBRANDT) (Supplementary Methods). Survival analysis within the data set of untreated primary glioblastoma (n=362) of The Cancer Genome Atlas (TCGA) network was performed using the Kaplan-Meier-analysis module of the R2 microarray analysis and visualisation platform (http://r2.amc.nl).

AHR [4] = molecular target: T1, AHR
Description: Dual luciferase/renilla assays were performed as detailed in the Supplementary Methods. For analysis of DRE-driven reporter gene activity in response to various Trp metabolites, the pGL3-promotor expression plasmid and the control plasmid pRL-SV40, expressing renilla luciferase were used (Promega, Heidelberg, Germany).

T cells = assay: T cell proliferation (mixed leukocyte reaction, TCR-stimulated T cells); format: cell-based, human
Description: Glioma cells were seeded in 96-well plates in RPMI 1640 containing 10% FBS, 100 U/ml penicillin and 100 μg/ml streptomycin. 24 h after seeding […] irradiated (30 Gy) PBMC as stimulators and 2×10^5 PBMC from unrelated donors as responders were added. Six-day MLR were performed and cultures were pulsed with [3H]-methylthymidine (PerkinElmer, Waltham, Mass., USA) for the last 18 h. Cells were harvested, and radionuclide uptake was measured by scintillation counting. Experiments were repeated with six unrelated PBMC donors.

AHR [5] = molecular target: T1, AHR; assay: Inhibition of ligand-induced AHR activation and AHR-regulated gene expression by an AHR antagonist; format: cell-based; set-up: Malignant glioma cell lines as well as GIC express the AHR constitutively; endogenous in cells
Description: TDO expression was analysed by immunohistochemistry in human tumors. Its relevance for Trp degradation was determined using genetic knockdown or overexpression of TDO. Trp and Kyn were measured in cell culture supernatants, human sera and xenograft tissue by HPLC. Mixed leukocyte reactions, chromium release, ELISpot and staining of immune cells in tumor tissues were used to assess the immune effects of TDO activity. Cell cycle analysis, matrigel and spheroid invasion assays, scratch assays, sphere formation assays and clonogenicity assays were employed to analyse the autocrine effects of TDO activity. All animal procedures followed the institutional laboratory animal research guidelines and were approved by the governmental authorities. Orthotopic implantation of human glioma cells with and without stable knockdown of TDO into CD1nu/nu mice, s.c. injection of these cells into NK-depleted or wildtype CD1nu/nu mice and s.c. injection of murine Tdo-proficient and Tdo-deficient GL261 cells into syngeneic C57BL/6N mice were performed to analyse the autocrine and paracrine effects of TDO activity in vivo. Microarray analysis of Kyn-treated human glioma cells was performed to identify signalling pathways activated by Kyn. Analysis of AHR translocation, DRE-luciferase assays and radioligand binding assays confirmed activation of the AHR by Kyn. […]

Row | Compound | EC50 (AHR [1]) [µM] | Kd (AHR [2]) [µM] | Translocation of the AHR into the nucleus (AHR [3]) | Motility and clonogenic survival of glioma cells (glioma cells; absence of Trp, 30 or 60 μM Kyn (FIG. 2i,j)) | Sphere formation of GIC (glioma cells; glioma-initiating cells) | Induction of AHR response genes (AHR response genes) | EC50 (AHR [4]) [µM] | Proliferation of T cell receptor-stimulated CD4+ and CD8+ T cells (T cells) | Allogeneic T cell proliferation with TDO knockdown glioma cells (T cells; 100 μM Kyn added to sh-TDO U87 cells (FIG. 2b)) | Activation of the AHR and upregulation of AHR-regulated gene expression in response to Kyn (AHR [5]; agonist Kyn) | Activation of the AHR by Kyn, TCDD and 3-MC (AHR [5]; three ligands: Kyn, TCDD, 3-methylcholanthrene)
1 | Kynurenin | 12.3 | ~4 | led to translocation of the AHR into the nucleus | restored motility and clonogenic survival | enhanced | broad induction of AHR response genes | 36.6 | concentration-dependently inhibited | prevented the restoration of T cell proliferation |  | 
2 | COc1ccc(-c2cc(=O)c3ccccc3o2)cc1OC [3,4-DMF, 3,4-dimethoxylflavone] |  |  |  |  |  |  |  |  |  | inhibited | inhibited the activation of the AHR by all three ligands
